Columns and labels:
Test in all cases: relative viability (nuclei count vs DMSO), 5 days (fraction); higher = more cells survive
Axitinib + Pemetrexed = compound: CNC(=O)c1ccccc1Sc1ccc2c(/C=C/c3ccccn3)n[nH]c2c1 [Axitinib] + Nc1nc2[nH]cc(CCc3ccc(C(=O)N[C@@H](CCC(=O)O)C(=O)O)cc3)c2c(=O)[nH]1 [Pemetrexed] (partner 0.2 µM)
Summary of the method: (§1)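 Lung cancer cell lines were pin-tool dosed in 1536-well plates on the day after seeding, with either a lone drug or a fixed anchor-drug dose plus five library-drug doses (not always all listed) in √10 steps. Nuclei were counted on 4× images after 5 days. Relative viability is the ratio of treated-well to vehicle-well nuclei counts, with each value a median of duplicate plates.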

Bemcentinib + Bortezomib = compound: Nc1nc(Nc2ccc3c(c2)CC[C@@H](N2CCCC2)CC3)nn1-c1cc2c(nn1)-c1ccccc1CCC2 [Bemcentinib] + CC(C)C[C@H](NC(=O)[C@H](Cc1ccccc1)NC(=O)c1cnccn1)B(O)O [Bortezomib] (partner 0.002 µM)
Summary of the method: as §1

Bemcentinib + Lapatinib = compound: Nc1nc(Nc2ccc3c(c2)CC[C@@H](N2CCCC2)CC3)nn1-c1cc2c(nn1)-c1ccccc1CCC2 [Bemcentinib] + CS(=O)(=O)CCNCc1ccc(-c2ccc3ncnc(Nc4ccc(OCc5cccc(F)c5)c(Cl)c4)c3c2)o1 [Lapatinib] (partner 2 µM)
Summary of the method: as §1

Bemcentinib + Tozasertib = compound: Nc1nc(Nc2ccc3c(c2)CC[C@@H](N2CCCC2)CC3)nn1-c1cc2c(nn1)-c1ccccc1CCC2 [Bemcentinib] + Cc1cc(Nc2cc(N3CCN(C)CC3)nc(Sc3ccc(NC(=O)C4CC4)cc3)n2)n[nH]1 [Tozasertib] (partner 0.1 µM)
Summary of the method: as §1

Row | Cell Line | relative viability (Axitinib + Pemetrexed; first compound 0.005 µM) | relative viability (Axitinib + Pemetrexed; first compound 0.01581 µM) | relative viability (Axitinib + Pemetrexed; first compound 0.05 µM) | relative viability (Axitinib + Pemetrexed; first compound 0.1581 µM) | relative viability (Axitinib + Pemetrexed; first compound 0.5 µM) | relative viability (Bemcentinib + Bortezomib; first compound 0.04 µM) | relative viability (Bemcentinib + Bortezomib; first compound 0.1265 µM) | relative viability (Bemcentinib + Bortezomib; first compound 0.4 µM) | relative viability (Bemcentinib + Bortezomib; first compound 1.265 µM) | relative viability (Bemcentinib + Bortezomib; first compound 4 µM) | relative viability (Bemcentinib + Lapatinib; first compound 0.04 µM) | relative viability (Bemcentinib + Lapatinib; first compound 0.1265 µM) | relative viability (Bemcentinib + Lapatinib; first compound 0.4 µM) | relative viability (Bemcentinib + Lapatinib; first compound 1.265 µM) | relative viability (Bemcentinib + Lapatinib; first compound 4 µM) | relative viability (Bemcentinib + Tozasertib; first compound 0.04 µM) | relative viability (Bemcentinib + Tozasertib; first compound 0.1265 µM) | relative viability (Bemcentinib + Tozasertib; first compound 0.4 µM) | relative viability (Bemcentinib + Tozasertib; first compound 1.265 µM) | relative viability (Bemcentinib + Tozasertib; first compound 4 µM)
1 | NCI-H838 | 0.243 | 0.25 | 0.247 | 0.237 | 0.25 | 1.01 | 0.748 | 0.986 | 0.763 | 0.834 | 1.06 | 1.16 | 0.914 | 0.967 | 1.26 | 0.281 | 0.268 | 0.264 | 0.262 | 0.291
2 | NCI-H1755 | 0.438 | 0.448 | 0.403 | 0.509 | 0.403 | 0.982 | 1 | 0.973 | 0.995 | 0.961 | 1.11 | 1.23 | 1.01 | 0.996 | 1.01 | 0.64 | 0.742 | 0.626 | 0.607 | 0.613
3 | EMC-BAC-2 | 0.476 | 0.464 | 0.456 | 0.461 | 0.518 | 1.07 | 1.15 | 1.07 | 0.952 | 1.11 | 0.917 | 0.959 | 0.957 | 0.878 | 0.898 | 0.264 | 0.281 | 0.285 | 0.305 | 0.301
4 | EKVX | 0.428 | 0.376 | 0.457 | 0.417 | 0.398 | 1.02 | 1.36 | 1.03 | 0.996 | 0.995 | 0.186 | 0.218 | 0.199 | 0.213 | 0.196 | 0.39 | 0.468 | 0.39 | 0.437 | 0.374
5 | NCI-H647 | 0.21 | 0.149 | 0.2 | 0.184 | 0.209 | 1.18 | 1.14 | 1.24 | 0.811 | 1.11 | 1.2 | 1.25 | 1.1 | 0.978 | 1.22 | 0.304 | 0.286 | 0.28 | 0.317 | 0.246
6 | LU99A | 0.196 | 0.203 | 0.182 | 0.175 | 0.204 | 1.11 | 1.12 | 1.01 | 1.25 | 1.2 | 0.961 | 1.26 | 1.15 | 0.961 | 0.893 | 0.263 | 0.31 | 0.248 | 0.264 | 0.258
7 | NCI-H1734 | 0.413 | 0.432 | 0.412 | 0.435 | 0.429 | 0.935 | 0.871 | 1.2 | 0.953 | 0.947 | 1.11 | 1.08 | 1.12 | 1.03 | 1.04 | 0.245 | 0.28 | 0.25 | 0.256 | 0.27
8 | HARA | 0.231 | 0.265 | 0.309 | 0.26 | 0.258 | 1.19 | 1.17 | 1.27 | 1.15 | 1.1 | 0.668 | 0.928 | 0.788 | 0.865 | 0.469 | 0.12 | 0.139 | 0.106 | 0.102 | 0.102
9 | NCI-H2228 | 0.335 | 0.306 | 0.307 | 0.374 | 0.341 |  | 1.04 | 1.12 | 0.93 | 1.08 |  | 1.39 | 1.18 | 1.08 | 1.18 | 0.182 | 0.249 | 0.216 | 0.251 | 0.271
10 | HCC-827 | 0.228 | 0.158 | 0.279 | 0.296 | 0.275 | 0.979 | 1.05 | 1.16 | 0.762 | 1.06 | 0.179 | 0.206 | 0.216 | 0.226 | 0.194 | 0.474 | 0.458 | 0.421 | 0.408 | 0.417
11 | EPLC-272H | 0.333 | 0.341 | 0.302 | 0.381 | 0.336 |  | 1 | 0.91 | 0.79 | 0.876 |  | 0.958 | 1.01 | 0.962 | 1.02 | 0.281 | 0.207 | 0.249 | 0.252 | 0.261
12 | SW 1573 | 0.841 | 0.777 | 0.928 | 0.77 | 0.816 | 1.09 | 0.973 | 1.14 | 0.97 | 1.15 | 0.976 | 1.03 | 1.18 | 0.961 | 1.09 | 0.18 | 0.166 | 0.174 | 0.129 | 0.194
13 | LXF-289 | 1.01 | 0.91 | 0.968 | 0.888 | 0.982 | 1.02 | 1.06 | 1.03 | 1.06 | 1.07 | 0.887 | 0.908 | 0.988 | 0.972 | 0.924 | 0.179 | 0.2 | 0.185 | 0.185 | 0.205
14 | SK-LU-1 | 1.01 | 1 | 1.09 | 1.03 | 1.13 | 1.02 | 1.35 | 1.38 | 1.3 | 1.25 | 0.806 | 0.888 | 0.865 | 0.964 | 0.904 | 0.342 | 0.363 | 0.283 | 0.367 | 0.335
15 | NCI-H23 | 0.678 | 0.751 | 0.583 | 0.665 | 0.713 | 1.16 | 1.14 | 1.01 | 1.17 | 1.14 | 0.966 | 1.28 | 1.32 | 1.19 | 1.1 | 0.389 | 0.632 | 0.327 | 0.407 | 0.366
16 | CAL-12T | 1.43 | 1.35 | 1.28 | 1.22 | 1.24 | 0.977 | 0.936 | 0.953 | 0.736 | 0.908 | 0.556 | 0.598 | 0.599 | 0.597 | 0.652 | 0.302 | 0.368 | 0.307 | 0.286 | 0.329

Reference: the supplement of paper PMC10307832
